Data reported in ChEMBL document CHEMBL5257138, “Cytosolic Enzymes Generate Cannabinoid Metabolites 7-Carboxycannabidiol and 11-Nor-9-carboxytetrahydrocannabinol” (ACS Med Chem Lett, 2023).
pIC50: −log10 of the molar value.

How the values were obtained:
Format in all cases: ADME, subcellular
[1] = Drug metabolism in human liver S9 fraction assessed as metabolite 7-COOH-CBD formation at 1 uM incubated for 20 mins in presence of NADPH by LC-MS/MS analysis; settings: s9, 20 min
[2] = Drug metabolism in human liver cytosol assessed as reduction in metabolite 7-COOH-CBD formation by measuring WIN18446 IC50 in presence of NAD+ measured after 30 mins by LC-MS/MS analysis
[3] = Drug metabolism in human liver S9 fraction assessed as metabolite 7-COOH-CBD formation at 1 uM incubated for 20 mins in presence of NADPH and NAD+ by LC-MS/MS analysis; settings: s9, 20 min
[4] = Drug metabolism in human liver cytosol assessed as metabolite 7-COOH-CBD formation at 1 uM incubated for 20 mins in presence of NADPH and NAD+ by LC-MS/MS analysis
[5] = Drug metabolism in human liver S9 fraction assessed as reduction in metabolite 11-COOH-THC formation by measuring WIN18446 IC50 incubated for 10 mins in presence of NAD+ by LC-MS/MS analysis
[6] = Drug metabolism in human liver S9 fraction assessed as metabolite 11-COOH-THC formation at 1 uM incubated for 10 mins in presence of NAD+ by LC-MS/MS analysis; settings: s9, 10 min
[7] = Drug metabolism in human liver S9 fraction assessed as reduction in metabolite 11-COOH-THC formation by measuring hydralazine IC50 incubated for 20 mins in presence of NAD+ by LC-MS/MS analysis

Compound | Drug metabolism [1] | pIC50 [2] | Drug metabolism [3] | Drug metabolism [4] | pIC50 [5] | Drug metabolism [6] | pIC50 [7]
C=C(C)[C@@H]1CCC(CO)=C[C@H]1c1c(O)cc(CCCCC)cc1O | Metabolite_Notdetected | 6.55 | Metabolite_Detected | Metabolite_Detected |  |  | 
CCCCCc1cc(O)c2c(c1)OC(C)(C)[C@@H]1CCC(CO)=C[C@@H]21 |  |  |  |  | < 4.22 | Metabolite_Detected | 7.28
